From patent US20260014358A1, “THERMALLY REGULATED TRANSDERMAL DRUG DELIVERY SYSTEM” (Morningside Venture Investments Limited, priority 2018, published 2026) come the findings set out here.

Like-named read-outs stand apart in the source and are kept apart here.

For this series the following is noted: for Nicotine flow across the skin: passive matrix-type patch containing 21 mg nicotine on human cadaver skin, average of test patches (n=4). The procedure: Experiments were carried out by applying passive matrix-type nicotine patches containing 21 mg of nicotine to human cadaver skin and then periodically heating and cooling the patches over a period of 20 hours. Controls with no heating and cooling were tested concurrently. The test patches were subject to 3 cycles of heating and cooling while the control patches were not. Patches were heated for 2 hours, cooled for 5 hours, heated for 2 hours, cooled for 4 hours, heated for 2 hours, and cooled. Nicotine delivery across the skin was measured and averaged for control patches (n=2) and test patches (n=4).

Turning to `CN1CCCC1c1cccnc1` (stereo not shown) [Nicotine], the “Nicotine flow across the skin” value reads like this: (first 2-hour heating period) “around 4.9 mg/hr”; (second 2-hour heating period (after 5 hours cooling)) “around 2.5 mg/hr”; (third 2-hour heating period (after 4 hours cooling)) “around 1.8 mg/hr”. The “Change of nicotine flow across the skin when heat was applied” value (heated and cooled test patches, 3 cycles over 20 hours, human cadaver skin) is recorded as “increased”.
